Measurements published in PubChem BioAssay AID1963847 (Molecular Pharmacology Branch, DTP, NCI, 2024).

Tested on: 415267-285-R-J2-PDC complex spheroid viability
Assay: Anticancer human tumor 415267-285-R-J2-PDC patient-derived breast carcinoma cell line growth inhibition [POLQ]
Conditions: for IC50: curve of first compound; for viability, T/C: stronger effect = lower value
Protocol: Multicellular complex tumor spheroid response to Polymerase (POL) inhibitors (novobiocin, ART-558, RP6685) in combination with a variety of drugs and investigational agents in selected tumor cell lines
The POL inhibitors (novobiocin, ART-558, and RP6685) were evaluated both individually and in combination with standard of care and investigational anticancer small molecules within a complex spheroid model of solid tumors. . Complex spheroids include a stromal component modeled by human endothelial cells (HUVEC) and fibroblasts modeled by human mesenchymal stem cells (MSCs). The concentration ranges selected for each drug and investigational agent were based upon clinically achievable concentrations if the clinical Cmax of the agent was known.
Compounds. The drugs and investigational agents: novobiocin (NSC847541), ART-558 (NSC835418), RP-6685 (NSC848927), peposertib (NSC802822), ceralasertib (NSC780249), elimusertib (NSC800525), camonsertib (NSC841442), AZD-1390 (NSC803789), olaparib (NSC753686), talazoparib (NSC767125), rucaparib (NSC756644), sotorasib (NSC818433), MRTX-1133 (NSC836407), SN-38 (NSC673596), topotecan (NSC609699), epotoside (NSC141540), doxorubicin (NSC123127), gemcitabine (NSC613327), 5-fluorouracil (NSC19893), paclitaxel (NSC125973), vemurafenib (NSC761431), MSA-2 (NSC828583), SN-011 (NSC837082), adavosertib (NSC754352), prexasertib (NSC758257), carboplatin (NSC241240) and oxaliplatin (NSC266046), were obtained from the National Cancer Institute (NCI) Developmental Therapeutics Program Chemical Repository (21). The FDA-approved anticancer drug set is available from the Developmental Therapeutics Program at https://dtp.cancer.gov/organization/dscb/obtaining/. […] The stock solutions were prepared in dimethyl sulfoxide (DMSO, Sigma-Aldrich, St. Louis, MO, cat. D2650), except for the platinum compounds which were prepared in saline (Quality Biological, Gaithersburg, MD, cat. 114-055-101), at 800-fold the tested concentration and stored at -70 degrees C prior to their use. All drugs and investigational agents were tested over a range starting from a high concentration at or near the clinical Cmax and decreasing in half-log increments. If the clinical Cmax for an agent had not been determined, the highest concentration tested was 10 microM, except for SN-38, which was tested at a high concentration of 1 microM.
Cell Culture. All cells were maintained in an incubator at 37 degrees C and 5% CO2 with 95% humidity. The PDC lines were cultured according to standard operating procedures established by the NCI PDMR (https://pdmr.cancer.gov). Table 3 of the manuscript, lists the cell lines along with the number of the three cell types plated to form the mct-spheroids and media for tumor cell growth. After thawing, all PDC lines, except 997537-175-T-J1-PDC and 415267-285-R-J2-PDC, were cultured in Matrigel-coated flasks prepared with a working solution of 1X Ham's F-12 nutrient mix, without supplementation (Thermo Fisher Scientific, cat. 11765054), 100 U/mL penicillin-streptomycin (Thermo Fisher Scientific, cat. 15140122), and 2.5% Matrigel (Corning Inc., Corning, NY, cat. 354248) for the first three passages. The two PDC lines 997537-175-T-J1-PDC and 415267-285-R-J2-PDC were cultured on uncoated flasks. The 857933-349-R-J2-PDC line was cultured in 6C/Colon 1B media containing advanced DMEM/F-12 (Thermo Fisher Scientific, cat. 12634028), 10 mM HEPES (Thermo Fisher Scientific, cat. 15630080), 1X GlutaMAX supplement (Thermo Fisher Scientific, cat. 35050061), 0.1 mg/mL primocin (InvivoGen, San Diego, CA, cat. ant-pm-2), 10% defined fetal bovine serum, heat inactivated (HyClone Laboratories Inc., Logan, UT, cat. SH30070.03HI), 50% L-WRN conditioned media (ATCC, cat. CRL-3276), 1.25 mM N-Acetyl-L-cysteine (Sigma-Aldrich, cat. A9165), 10 mM nicotinamide (Sigma-Aldrich, cat. N0636), 1X B-27 supplement (Thermo Fisher Scientific, cat. 17504044), 1X N-2 supplement (Thermo Fisher Scientific, cat. […]
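Note: spheroids exposed to compounds for one week before readout.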
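Throughout, for viability, T/C: luminescence used as stand-in measure of viable cells; 100% = DMSO vehicle control viability.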

O=C(c1cc(Cc2n[nH]c(=O)c3ccccc23)ccc1F)N1CCN(C(=O)C2CC2)CC1 + Cc1cccc(N(C)C(=O)C2C(O)CCN2c2nc(C)cc(C(F)(F)F)c2C#N)c1
IC50 (second compound 0.0316 µM): > 10 µM
IC50 (second compound 0.1 µM): > 10 µM
IC50 (second compound 0.316 µM): > 10 µM
IC50 (second compound 1 µM): > 10 µM
IC50 (second compound 3.16 µM): > 10 µM
IC50 (second compound 10 µM): > 10 µM
viability, T/C (second compound 0.0316 µM, first compound 0.0316 µM): 87.6%
viability, T/C (second compound 0.0316 µM, first compound 0.1 µM): 101%
viability, T/C (second compound 0.0316 µM, first compound 0.316 µM): 102%
viability, T/C (second compound 0.0316 µM, first compound 1 µM): 99.7%
viability, T/C (second compound 0.0316 µM, first compound 3.16 µM): 103%
viability, T/C (second compound 0.0316 µM, first compound 10 µM): 82.9%
viability, T/C (second compound 0.1 µM, first compound 0.0316 µM): 94%
viability, T/C (second compound 0.1 µM, first compound 0.1 µM): 96.2%
viability, T/C (second compound 0.1 µM, first compound 0.316 µM): 96.5%
viability, T/C (second compound 0.1 µM, first compound 1 µM): 106%
viability, T/C (second compound 0.1 µM, first compound 3.16 µM): 91.2%
viability, T/C (second compound 0.1 µM, first compound 10 µM): 78.3%
viability, T/C (second compound 0.316 µM, first compound 0.0316 µM): 95.3%
viability, T/C (second compound 0.316 µM, first compound 0.1 µM): 98.3%
viability, T/C (second compound 0.316 µM, first compound 0.316 µM): 99.4%
viability, T/C (second compound 0.316 µM, first compound 1 µM): 111%
viability, T/C (second compound 0.316 µM, first compound 3.16 µM): 95.8%
viability, T/C (second compound 0.316 µM, first compound 10 µM): 86.6%
viability, T/C (second compound 1 µM, first compound 0.0316 µM): 104%
viability, T/C (second compound 1 µM, first compound 0.1 µM): 95.1%
viability, T/C (second compound 1 µM, first compound 0.316 µM): 95.8%
viability, T/C (second compound 1 µM, first compound 1 µM): 98.2%
viability, T/C (second compound 1 µM, first compound 3.16 µM): 92.9%
viability, T/C (second compound 1 µM, first compound 10 µM): 76.8%
viability, T/C (second compound 3.16 µM, first compound 0.0316 µM): 99.3%
viability, T/C (second compound 3.16 µM, first compound 0.1 µM): 98.6%
viability, T/C (second compound 3.16 µM, first compound 0.316 µM): 88.5%
viability, T/C (second compound 3.16 µM, first compound 1 µM): 95.9%
viability, T/C (second compound 3.16 µM, first compound 3.16 µM): 87.7%
viability, T/C (second compound 3.16 µM, first compound 10 µM): 72.9%
viability, T/C (second compound 10 µM, first compound 0.0316 µM): 100%
viability, T/C (second compound 10 µM, first compound 0.1 µM): 85.1%
viability, T/C (second compound 10 µM, first compound 0.316 µM): 87.7%
viability, T/C (second compound 10 µM, first compound 1 µM): 98%
viability, T/C (second compound 10 µM, first compound 3.16 µM): 90%
viability, T/C (second compound 10 µM, first compound 10 µM): 68%
